# Data reported in patent US10080752B2, “Treatment of brain and central nervous system tumors” (KADMON CORPORATION LLC, priority 2014, dated 2018).
# Assays:
# [1] = comparator in FIG. 1, 100 mg/kg oral gavage in mice; cited from earlier work
# [2] = Penetration of the blood-brain barrier by quantitative whole body autoradiography; type: in vivo, Lister Hooded partially pigmented male rats; details: rats
# Experimental: The compound of Formula 1 was tested to determine bio-distribution in tissues of the brain and CNS.
# Lister Hooded partially pigmented male rats (N=1 rat per time point) received a single dose of the compound of Formula 1 at 30 mg/kg body weight (^14C labeled, 3.7 MBq/kg body weight) via oral gavage. Animals were not fasted prior to dosing.
# Six rats (age 8-10 weeks old) were administered a single oral dose of [^14C]-labeled Formula 1; total dose of 30 mg/kg and a total radioactivity dose of 3.7 MBq/kg (100 μCi/kg). One rat/time point was euthanized by CO2 overdose at each of the following times after dose administration: 1, 6, 24, 72, 120 and 168 hours, followed by immediate snap freezing in hexane/solid CO2, subsequent freezing at −20° C., followed by whole-body autoradiography.
# [3] = Penetration of the blood-brain barrier: plasma and brain concentrations after a single oral dose; type: in vivo, Male CD-1 mice; details: mice, single dose 100 mg/kg oral gavage
# Experimental: The compound of Formula I was tested to determine bioavalability in tissues of the brain and CNS.
# Male CD-1 mice (N=3/group) received a single dose of lapatinib or the compound of Formula I at 100 mg/kg via oral gavage. Animals were not food fasted prior to dosing. Dose volumes were calculated based on the animals' body weights measured before the study.
# Plasma and tissue samples were collected 1, 4, 8 and 24 hours post dose (4 time-points/group, and 3 animals/time-point). Whole blood samples were collected into a Na heparin containing tube. Within 30 minutes of collection, the samples were centrifuged at approximately 3,000×g for 10 minutes at 2 to 8° C. to obtain plasma. The plasma samples were divided into 2 aliquots by transferring into 2 cryogenic vials and stored in a freezer at −75±15° C. prior to analysis. Tissues were collected after the blood was collected. Tissues (brain, liver and kidneys) were washed with ice-cold PBS, and the weight was measured and recorded. Each tissue was transferred into a glass vial and stored in a freezer at −75±15° C. prior to sample analysis.
# [4] = system: GL261-luc2 luciferase expressing cells; test: Efficacy alone or in combination with irradiation in an intracranial glioma model in mice; type: in vivo, C57BL/6 albino female mice; details: 70 mg/kg once daily, 5 days on/2 days off, oral gavage, FIG. 2
# Experimental: The compound of Formula 1 was tested to determine antitumor effects when tumors are growing in the brain. GL261-luc2 luciferase expressing cells were implanted intracranially (2 mm right lateral and 1 mm anterior from Bregma, 2-3 mm down from burr hole) into C57BL/6 albino female mice (N=14 per treatment group). Beginning 8 days after cell injection, mice received vehicle or the compound of Formula I at 70 mg/kg body weight (once daily, 5 days on/2 days off schedule) via oral gavage, with or without head-only irradiation (once daily for 5 days). Tumor burden in the brain was evaluated utilizing bioluminescence.
"Concentrations of radioactivity in brain compared with blood ([2]; single oral dose 30 mg/kg 14C labeled (3.7 MBq/kg), at 6 and 24 hours after dosing)",Concentration observed in CNS tissue compared with blood ([3]; FIG. 1),Time for which the CNS tissue concentration remained higher than in blood ([3]; duration of the assay),SMILES,"Crossing of the blood-brain barrier (comparator, as stated in legend of FIG. 1) [1]","Penetration of the blood brain barrier ([2]; single oral dose 30 mg/kg 14C labeled, whole-body autoradiography)","Crossing of the blood brain barrier / concentrations in CNS and brain tissue ([3]; samples 1, 4, 8 and 24 hours post dose, FIG. 1)","Growth of glioma tumors in the brain (tumor burden by bioluminescence) ([4]; from 8 days after cell injection, alone)",Anti-tumor effects of irradiation on tumors in the brain (tumor burden by bioluminescence) ([4]; with head-only irradiation once daily for 5 days)
–,–,–,CS(=O)(=O)CCNCc1ccc(-c2ccc3ncnc(Nc4ccc(OCc5cccc(F)c5)c(Cl)c4)c3c2)o1 [lapatinib],does not cross the blood-brain barrier,–,–,–,–
comparable to that in blood,substantially higher,at least 24 hours,"COc1cc2c(Nc3ccc(Cl)c(Cl)c3F)ncnc2cc1OCC1C[C@@H]2CN(C)C[C@@H]2C1 (stereo partly drawn) [Formula 1, N-(3,4-dichloro-2-fluorophenyl)-7-({[(3aR,6aS)-2-methyloctahydrocyclopenta[c]pyrrol-5-yl]methyl}oxy)-6-(methyloxy)quinazolin-4-amine]",–,good penetration of the blood brain barrier,crossed the blood brain barrier and attained high concentrations in CNS and brain tissue,reduced the growth of glioma tumors in the brain,increased the anti-tumor effects of irradiation on tumors in the brain
